# Laboratory results: patent US4791139A, “Diphenyl ether derivatives and their use as insecticides” (Imperial Chemical Industries PLC, priority 1986, dated 1988)
# Assays:
# Assay type in all cases: in vivo
# [1] = test system: Meloidogyne incognita (Tomato root knot eelworm - larvae); experiment: Residual test, Tomato root knot eelworm - larvae (MI), Semi in-vitro; conditions: 168 h, application rate is half that recorded, 7 days, read-out: MI grading of mortality; for mortality at 125 µg/mL: rate 250 ppm; for mortality at 250 µg/mL: rate column 500 ppm
# [2] = test system: Diabrotica balteata (rootworm larvae); experiment: Residual test, rootworm larvae (DB), Filter paper/maize seed; conditions: 72 h, 3 days, read-out: DB grading of mortality
# Description: (§1) The activity of the Product was determined using a variety of insect pests. The Product was used in the form of liquid preparations containing from 100 to 500 parts per million (ppm) by weight of the Product. The preparations were made by dissolving the Product in acetone and diluting the solutions with water containing 0.1% by weight of a wetting agent sold under the trade name "SYNPERONIC" NX until the liquid preparations contained the required concentration of the Product. "SYNPERONIC" is a Registered Trade Mark. The test procedure adopted with regard to each pest was basically the same and comprised supporting a number of the pests on a medium which was usually a host plant or a foodstuff on which the pests feed, and treating either or both the pests and the medium with the preparations. The mortality of the pests was then assessed at periods usually varying from one to seven days after the treatment.
# [3] = test system: Myzus persicae (aphids); experiment: Contact test, aphids (MP), Chinese Cabbage leaf; conditions: 72 h, 3 days, read-out: MP grading of mortality
# Description: as §1, with “treatment. […] In Table III the pest organism used is designated by a letter code and the pests species, the support medium or food, and the type and duration of test is given in Table II.” for “treatment.”
# [4] = test system: Tetranychus urticae (spider mites - ova); experiment: Contact test, spider mites - ova (TUe), French bean leaf; conditions: 144 h, 6 days, read-out: TUE grading of mortality
# Description: as §1
# [5] = test system: Tetranychus urticae (spider mites - adult); experiment: Contact test, spider mites - adult (TUa), French bean leaf; conditions: 72 h, 3 days, read-out: TUA grading of mortality
# Description: as §1
# [6] = test system: Spodoptera exigua (lesser army worm - larvae); experiment: Residual test, lesser army worm - larvae (SP), Cotton leaf; conditions: 72 h, 3 days, read-out: SP grading of mortality
# Description: (§2) The activity of the Product was determined using a variety of insect pests. The Product was used in the form of liquid preparations containing from 100 to 500 parts per million (ppm) by weight of the Product. The preparations were made by dissolving the Product in acetone and diluting the solutions with water containing 0.1% by weight of a wetting agent sold under the trade name "SYNPERONIC" NX until the liquid preparations contained the required concentration of the Product. "SYNPERONIC" is a Registered Trade Mark.
# (§3) The test procedure adopted with regard to each pest was basically the same and comprised supporting a number of the pests on a medium which was usually a host plant or a foodstuff on which the pests feed, and treating either or both the pests and the medium with the preparations. The mortality of the pests was then assessed at periods usually varying from one to seven days after the treatment.
# (§4) The results of the tests are given in Table III for each of the Products, at the rate in parts per million given in the second column as a grading of mortality designated as A, B or C wherein A indicates 80-100% mortality or knockdown (70-100% for Meloidogyne incognita), B indicates 50-79% mortality knockdown or knockdown (50-69% for Meloidogyne incognita) and C indicates less than 50% mortality or knockdown.
# (§5) In Table III the pest organism used is designated by a letter code and the pests species, the support medium or food, and the type and duration of test is given in Table II.
# (lesser army worm - larvae)
# [7] = test system: Musca domestica (houseflies - adults); experiment: Knockdown test, houseflies - adults (MD/KD), Cotton wool/sugar; conditions: 4 hours, read-out: MD/KD grading of knockdown
# Description: as §2, §3
# In the case of the species Musca domestica (housefly), an additional assessment to determine the knockdown effect of the compounds was performed.
# as §5
# [8] = test system: Musca domestica (houseflies - adults); experiment: Contact test, houseflies - adults (MD), Cotton wool/sugar; conditions: 24 h, 1 day, read-out: MD grading of mortality
# Description: as §1
# [9] = test system: Heliothis virescens (tobacco budworm - larvae); experiment: Residual test, tobacco budworm - larvae (HV), Cotton leaf; conditions: 72 h, read-out: HV grading of mortality
# Description: as §2, §3, §4, §5
# (tobacco budworm - larvae)
# [10] = test system: Nilaparvata lugens (brown plant hopper - nymphs); experiment: Contact test, brown plant hopper - nymphs (NL), Rice plant; conditions: 72 h, 3 days, read-out: NL grading of mortality
# Description: as §1
# [11] = test system: Blattella germanica (cockroach nymphs); experiment: Residual test, cockroach nymphs (BG), Plastic pot; conditions: 72 h, 3 days, read-out: BG grading of mortality
# Description: as §1
SMILES,mortality at 125 µg/mL [1],mortality at 250 ppm [2],mortality at 250 ppm [3],mortality at 250 ppm [4],mortality at 250 ppm [5],mortality at 250 ppm [6],pest or weed control at 250 ppm [7],mortality at 250 ppm [8],mortality at 250 ppm [9],mortality at 250 µg/mL [1],mortality at 500 ppm [2],mortality at 500 ppm [3],mortality at 500 ppm [4],mortality at 500 ppm [5],mortality at 500 ppm [6],pest or weed control at 500 ppm [7],mortality at 500 ppm [8],mortality at 500 ppm [9],mortality at 500 ppm [10],mortality at 500 ppm [11],other results
"CCOc1ccc(C(=CCCc2cccc(Oc3ccccc3)c2)C(F)(F)F)cc1F [Compound 50, 1,1,1-Trifluoro-2-(3-fluoro-4-ethoxyphenyl)-5-(3-phenoxyphenyl)-pent-2-ene]",,,,,,,,,,,,,,,,,,,,,mortality at 225 µg/mL ([1]; rate column 450 ppm): < 50%; mortality at 450 ppm ([2]; 450 ppm): 80 to 100%; mortality at 450 ppm ([3]; 450 ppm): 80 to 100%; mortality at 450 ppm ([4]; 450 ppm): < 50%; mortality at 450 ppm ([5]; 450 ppm): < 50%; mortality at 450 ppm ([6]; 450 ppm): 80 to 100%; pest or weed control at 450 ppm ([7]; 450 ppm): 80 to 100%; mortality at 450 ppm ([8]; 450 ppm): 80 to 100%; mortality at 450 ppm [9]: 80 to 100%; mortality at 450 ppm ([10]; 450 ppm): < 50%; mortality at 450 ppm ([11]; 450 ppm): 80 to 100%
"FC(F)(F)Oc1ccc(C(Cl)(CCCc2cccc(Oc3ccccc3)c2)C(F)(F)F)cc1 (racemic) [Compound 62, 1,1,1-trifluoro-2-chloro-2-(4-trifluoromethoxyphenyl)-5-(3-phenoxyphenyl)pentane]",< 50%,< 50%,< 50%,< 50%,< 50%,< 50%,< 50%,< 50%,< 50%,,,,,,,,,,,,mortality at 250 ppm [10]: < 50%; mortality at 250 ppm [11]: < 50%
"FC(F)(F)C(CCCc1cccc(Oc2ccccc2)c1)c1ccc(OC(F)(F)C(F)(F)Br)cc1 (racemic) [Compound 68, 1,1,1-trifluoro-2-[4-(2-bromo-1,1,2,2-tetrafluoroethoxy)phenyl]-5-(3-phenoxyphenyl)-pentane]",,,,,,,,,,< 50%,80 to 100%,< 50%,80 to 100%,80 to 100%,50 to 79%,< 50%,< 50%,< 50%,80 to 100%,80 to 100%,
"CCOc1ccc(C(CCCc2cccc(Oc3ccccc3)c2)C(F)(F)Cl)cc1 (racemic) [Compound 69, 1,1-Difluoro-1-chloro-2-(4-ethoxyphenyl)-5-(3-phenoxyphenyl)pentane]",,,,,,,,,,< 50%,80 to 100%,80 to 100%,< 50%,< 50%,80 to 100%,< 50%,80 to 100%,80 to 100%,80 to 100%,80 to 100%,
"CCOc1ccc(C(CCC(C)c2cccc(Oc3ccccc3)c2)C(F)(F)F)cc1 (racemic) [Compound 55, 1,1,1-Trifluoro-2-(4-ethoxyphenyl)-5-(3-phenoxyphenyl)hexane]",,,,,,,,,,< 50%,50 to 79%,80 to 100%,< 50%,< 50%,80 to 100%,80 to 100%,80 to 100%,80 to 100%,80 to 100%,80 to 100%,
"FC(F)(F)Oc1ccc(C(F)(CCCc2cccc(Oc3ccccc3)c2)C(F)(F)F)cc1 (racemic) [Compound 60, 1,1,1,2-tetrafluoro-2-(4-trifluoromethoxyphenyl)-5-(3-phenoxyphenyl)pentane]",< 50%,80 to 100%,80 to 100%,80 to 100%,80 to 100%,80 to 100%,80 to 100%,80 to 100%,80 to 100%,,,,,,,,,,,,mortality at 250 ppm [10]: 80 to 100%; mortality at 250 ppm [11]: 80 to 100%
"FC(F)(F)C(CCCc1cccc(Oc2ccccc2)c1)c1ccc2c(c1)CCC2 (racemic) [Compound 52, 1,1,1-Trifluoro-2-(5-indanyl)-5-(3-phenoxyphenyl)pentane]",< 50%,< 50%,50 to 79%,< 50%,80 to 100%,80 to 100%,< 50%,50 to 79%,80 to 100%,,,,,,,,,,,,mortality at 250 ppm [10]: 80 to 100%; mortality at 250 ppm [11]: 80 to 100%
"CCOc1c(F)cc(C(=CC=Cc2ccc(F)c(Oc3ccccc3)c2)C(F)(F)F)cc1F [Compound 67, 1,1,1-Trifluoro-2-(3,5-difluoro-4-ethoxyphenyl)-5-(4-fluoro-3-phenoxyphenyl)penta-2,4-diene]",,,,,,,,,,< 50%,80 to 100%,80 to 100%,< 50%,< 50%,80 to 100%,< 50%,< 50%,80 to 100%,80 to 100%,< 50%,
"COCc1ccc(C(CCCc2cccc(Oc3ccccc3)c2)C(F)(F)F)cc1 (racemic) [Compound 45, 1,1,1-Trifluoro-2-(4-methoxymethylphenyl)-5-(3-phenoxyphenyl)pentane]",,,,,,,,,,< 50%,80 to 100%,< 50%,< 50%,< 50%,80 to 100%,80 to 100%,80 to 100%,80 to 100%,80 to 100%,< 50%,
"Fc1ccc(C(CCCc2cccc(Oc3ccccc3)c2)C(F)(F)F)c(F)c1OC(F)(F)F (racemic) [Compound 72, 1,1,1-Trifluoro-2-(2,4-difluoro-3-trifluoromethoxyphenyl)-5-(3-phenoxyphenyl)-pentane]",,,,,,,,,,< 50%,80 to 100%,80 to 100%,< 50%,50 to 79%,80 to 100%,< 50%,< 50%,80 to 100%,50 to 79%,80 to 100%,
